Measured values reported in ChEMBL document CHEMBL3046525, “In vitro antiproliferative activity of 11-aminoalkylamino-substituted 5H-indolo[2,3-b]quinolines; improving activity of neocryptolepines by installation of ester substituent” (Med Chem Res, 2013).

Tests used:
[1] = Selectivity ratio of IC50 for mouse BALB/3T3 cells to IC50 for human HCT116 cells; type: cell-based, HCT-116; conditions: BALB/3T3 cells versus HCT116 cells, read-out: Ratio IC50
MV4-11 = assay: Antiproliferative activity against Homo sapiens (human) MV411 cells after 72 hr by MTT assay; type: functional, cell-based; conditions: MV4-11, 72 h
A549 = assay: Antiproliferative activity against Homo sapiens (human) A549 cells after 72 hr by SRB assay; type: functional, cell-based; conditions: A549, 72 h
BALB/3T3 = assay: Cytotoxicity against Mus musculus (mouse) BALB/3T3 cells after 72 hr by SRB assay; type: cell-based; conditions: BALB/3T3, 72 h

Row | IC50 (MV4-11) | Structure (SMILES) | selectivity ratio [1] | further results
1 |  | COC(=O)c1ccc2c(c1)c(NCCCN)c1c3ccccc3nc-1n2C | 4 | 
2 |  | COC(=O)c1ccc2nc3n(C)c4ccccc4c(NCCCO)c-3c2c1 | 4 | 
3 |  | COC(=O)c1ccc2nc3n(C)c4ccccc4c(NCCCN)c-3c2c1 | 4 | 
4 |  | COC(=O)c1ccc2nc3n(C)c4ccccc4c(N4CCOCC4)c-3c2c1 | 4 | 
5 |  | COC(=O)c1ccc2nc3n(C)c4ccccc4c(N4CCCN(C)CC4)c-3c2c1 | 4 | 
6 |  | COC(=O)c1ccc2nc3n(C)c4ccccc4c(NCCCCN)c-3c2c1 | 4 | 
7 |  | COC(=O)c1ccc2nc3n(C)c4ccccc4c(NCCN(C)C)c-3c2c1 | 4 | 
8 |  | COC(=O)c1ccc2nc3n(C)c4ccccc4c(NCCCN(C)C)c-3c2c1 | 4 | 
9 | 170 nM | Cn1c2nc3ccccc3c-2c(NCCCO)c2ccccc21 |  | 
10 | 7170 nM | CN1CCCN(c2c3c4ccccc4nc-3n(C)c3ccccc23)CC1 |  | 
11 | 100 nM | Cn1c2nc3ccccc3c-2c(NCCCCN)c2ccccc21 |  | 
12 |  | COC(=O)c1ccc2nc3n(C)c4ccc(C(=O)OC)cc4c(NCCCN)c-3c2c1 | 28 | 
13 | 56 nM | COC(=O)c1ccc2nc3n(C)c4ccc(Br)cc4c(NCCCN)c-3c2c1 | 4 | IC50 (A549): 194 nM; IC50 (BALB/3T3): 833 nM
14 |  | COC(=O)c1ccc2c(c1)c(NCCCN)c1c3cc(Br)ccc3nc-1n2C | 4 | 
15 |  | Cn1c2nc3ccc(Br)cc3c-2c(NCCCN)c2cc(Cl)ccc21 | 4 | 
16 | > 25000 nM | Cn1c2nc3ccc(C(=O)O)cc3c-2c(NCCCN)c2ccccc21 |  | 
17 | 9280 nM | CN(C)CCNc1c2c3cc(C(=O)O)ccc3nc-2n(C)c2ccccc12 |  | 
18 | > 25000 nM | CN(C)CCCNc1c2c3cc(C(=O)O)ccc3nc-2n(C)c2ccccc12 |  | 
19 | > 25000 nM | Cn1c2nc3ccc(C(=O)O)cc3c-2c(NCCCO)c2ccccc21 |  | 
